Data set [1] deals with T1, alpha-2-delta receptor 2 (A2DR2) (Homo sapiens, UniProt Q9NY47).
T1 construct: expressed in transfected cells; host or cells: HEK 293 (membrane preparation)
The data set is described as follows: [3H]Gabapentin A2DR2 binding assay (filter, Biological Method 4). The note with it: displacement of [3H]-gabapentin. An excerpt: (§1) HEK 293 recombinant cells expressing A2DR1 or A2DR2 protein are harvested and washed in phosphate buffered saline (“PBS”). The cells are centrifuged and resuspended in tris(hydroxymethyl)aminomethane-ethylenediaminetetraacetic acid (“Tris-EDTA” or “TE”) buffer containing Roche Complete Protease Inhibitor Cocktail. The cells are homogenized, centrifuged at 3000×g, and the supernatant centrifuged again at 50,000×g. The resulting pellet is resuspended and homogenized in TE. Following determination of A2DR1 or A2DR2 protein concentration, aliquots are stored at −70° C. until the day of testing (membrane preparation may be used for at least 6 months).
(§2) In one version, the binding assay is set up in a 96-well format using deep-well polypropylene plates. In a total volume of 500 μL, the following additions are made: 250 μL buffer [[…] N-2-hydroxyethylpiperazine-N′-2-ethanesulfonic acid (“HEPES”), pH 7.4], 25 μL [3H]gabapentin (10 nM final concentration), 200 μL thawed tissue membrane preparation from Step (1) (˜40 μg protein), and 25 μL of test compound at 7 test dilutions (for example, 0.001, 0.01, 0.03, 0.1, 0.3, 1.0, and 10 μM concentrations). Non-specific binding for each plate is determined by the addition of 10 μM of pregabalin instead of test compound in a few of the 96 wells. Following incubation for 45 minutes at 21° C., the contents of the wells are filtered under vacuum onto glass filter/B (“GF/B”) filter mats and then washed 4×1 mL with chilled 50 mM tris(hydroxymethyl)aminomethane (“Tris”) HCl, pH 6.9. The mats are placed into plastic pouches, scintillation cocktail is added, the pouches are sealed, and radioactivity for each sample is counted.
(§3) Specific binding values for each concentration are transformed and then analyzed by a 4-parameter nonlinear regression equation provided by Prism graphics software by Graph Pad to determine IC50 values by conventional means.

The subject of data set [2] is MIA Rat (monosodium iodoacetate-induced osteoarthritis, right knee joint). Briefly: Monosodium iodoacetate-induced osteoarthritis in rat model of joint cartilage damage (MIA Rat). In kind it is in vivo. The settings on record: 2-week MIA study, Day 14, rat; for % I @ 10 mg/kg/day (%) (± SEM): inhibition of loss of hind limb joint function in MIA at Day 14: 10 mg/kg/day via osmotic pump. An excerpt:
One end result of the induction of osteoarthritis in this model, as determined by histologic analysis, is the development of an osteoarthritic condition within the affected joint, as characterized by the loss of Toluidine blue staining and formation of osteophytes. Associated with the histologic changes is a concentration-dependent degradation of joint cartilage, as evidenced by affects on hind-paw weight distribution of the limb containing the affected joint, the presence of increased amounts of proteoglycan or hydroxyproline in the joint upon biochemical analysis, or histopathological analysis of the osteoarthritic lesions.
The invention compounds typically are not effective for relieving joint pain when administered in an acute model, such as the instant MIA Rat model, which has a duration of just 14 or 28 days.
Generally, In the MIA Rat model on Day 0, the hind-paw weight differential between the right arthritic joint and the left healthy joint of male Wistar rats (150 g) are determined with an incapacitance tester, model 2KG (Linton Instrumentation, Norfolk, United Kingdom). The incapacitance tester has a chamber on top with an outwardly sloping front wall that supports a rat's front limbs, and two weight sensing pads, one for each hind paw, that facilitates this determination. Then the rats are anesthetized with isofluorine, and the right, hind leg knee joint is injected with 1.0 mg of mono-iodoacetate (“MIA”) through the infrapatellar ligament. Injection of MIA into the joint results in the inhibition of glycolysis and eventual death of surrounding chondrocytes. The rats are further administered either an invention compound or vehicle (in the instant case, water) daily for 14 days or 28 days.
The invention compound is typically administered at a dose of 30 mg of per kilogram of rat per day (30 mg/kg/day), but may be administered at other doses such as, for example, 10 mg/kg/day, 60 mg/kg/day, 90-mg/kg/day, or 100 mg/kg/day according to the requirements of the invention compound being studied. It is well within the level of ordinary skill in the pharmaceutical arts to determine a proper dosage of an invention compound in this model.
Administration of an invention compound in this model is optionally by oral administration or by intravenous administration via an osmotic pump. After 7 and 14 days for a two week study, or 7, 14, and 28 days for a four week study, the hind-paw weight distribution is again determined. Typically, the animals administered vehicle alone place greater weight on their unaffected left hind paw than on their right hind paw, while animals administered an invention compound show a more normal (i.e., more like a healthy animal) weight distribution between their hind paws. This change in weight distribution was proportional to the degree of joint cartilage damage. Percent inhibition of a change in hind paw joint function is calculated as the percent change in hind-paw weight distribution for treated animals versus control animals. For example, for a two week study, [formula] wherein: ΔWC is the hind-paw weight differential between the healthy left limb and the arthritic limb of the control animal administered vehicle alone, as measured on Day 14; and • ΔWG is the hind-paw weight differential between the healthy left limb and the arthritic limb of the animal administered an invention compound as measured on Day 14.
In order to measure biochemical or histopathological end points in the MIA Rat model, some of the animals in the above study may be sacrificed, and the amounts of free proteoglycan in both the osteoarthritic right knee joint and the contralateral left knee joint may be determined by biochemical analysis. The amount of free proteoglycan in the contralateral left knee joint provides a baseline value for the amount of free proteoglycan in a healthy joint. […]

The target of data set [3] is pig alpha-2-delta receptor 1 (A2DR1) (Sus scrofa, UniProt A0A287BIN3). Briefly: [3H]Gabapentin scintillant proximity A2DR1 binding assay (A2DR1 SPA, Biological Method 5). The note with it: displacement of [3H]-gabapentin. As to the method: (§4) Recombinant HEK 293 cells expressing pig A2DR1 and A2DR2 subunits were grown under normal cell culture conditions (RPMI-1640 media with 10% FBS, 200 μg G418, and 1% penicillin/streptomycin 1t 37° C. with 5% CO2) until reaching confluency in T-75 flasks, at which time they were harvested. The harvested cells were suspended in ice-cold 5 mM Tris/5 mM ethylenediaminetetraacetic acid (“EDTA”) buffer, pH 7.4 (“TE buffer”) containing phenylmethylsulfonyl fluoride (“PMSF”) (0.1 mM) and Roche Complete Protease Inhibitor Cocktail, and allowed to sit on ice for 30 minutes. The cells were broken by sonication using 20 bursts, 40-50 cycles, and then centrifuged at 3000×g for 10 minutes. The resulting supernatant was transferred to a new tube and centrifuged at 50,000×g for 30 minutes. The resulting pellet was resuspended in 10 mM HEPES buffer, pH 7.4, homogenized, and stored at—80° C. The A2DR1 or A2DR2 membrane protein concentration was determined by the Pierce BCA method using bovine serum albumin (“BSA”) as the standard.
(§5) The [^3H]gabapentin SPA binding assay was performed in Costar 3632 96-well, clear bottom assay plates using Wheatgerm agglutinin beads (Amersham Pharmacia Biotech). Pig A2DR1 or A2DR2 membranes (10-20 μg protein per well) prepared above in Step (1) and SPA beads (0.5 mg per well) were mixed with 30 nM [^3H]gabapentin (52 Ci/mmol; Amersham Pharmacia Biotech) in 10 mM HEPES/10 mM MgSO4 assay buffer, pH 7.4 using KOH. The final well volume was 200 μL and non-specific binding was determined in the presence of 10 μM unlabeled pregabalin. The final mixture containing A2DR1 or A2DR2 membrane protein incubated with SPA beads, test compounds, and [^3H]gabapentin was incubated at room temperature for 15-24 hours, and the plates were then counted on a Wallace Trilux 1450 Microbeta scintillation counter. Step (3): Determination of IC50 values
(§6) Curve fitting and IC50 values were calculated using a four-parameter, non-linear regression equation from GraphPad Prism 3.0 software, while Ki values were determined using the equation of Chang and Prussoff.

Data set [4] concerns the target alpha-2-delta receptor 1 (A2DR1) (Homo sapiens, UniProt P54289). The data set is described as follows: [3H]Gabapentin A2DR1 binding assay (filter, Biological Method 4). The settings on record: displacement of [3H]-gabapentin.
Text: as §1, §2, §3

Data set [5] deals with pig alpha-2-delta receptor 2 (A2DR2) (UniProt A0A8W4FF87). Briefly: [3H]Gabapentin scintillant proximity A2DR2 binding assay (A2DR2 SPA, Biological Method 5). The settings on record: displacement of [3H]-gabapentin. As to the method:
as §4, §5, §6
In general terms: Displacement assays read how much labelled ligand stays bound in the presence of the test substance.

Chain of pig alpha-2-delta receptor 1 (A2DR1) (A0A287BIN3 1-1109): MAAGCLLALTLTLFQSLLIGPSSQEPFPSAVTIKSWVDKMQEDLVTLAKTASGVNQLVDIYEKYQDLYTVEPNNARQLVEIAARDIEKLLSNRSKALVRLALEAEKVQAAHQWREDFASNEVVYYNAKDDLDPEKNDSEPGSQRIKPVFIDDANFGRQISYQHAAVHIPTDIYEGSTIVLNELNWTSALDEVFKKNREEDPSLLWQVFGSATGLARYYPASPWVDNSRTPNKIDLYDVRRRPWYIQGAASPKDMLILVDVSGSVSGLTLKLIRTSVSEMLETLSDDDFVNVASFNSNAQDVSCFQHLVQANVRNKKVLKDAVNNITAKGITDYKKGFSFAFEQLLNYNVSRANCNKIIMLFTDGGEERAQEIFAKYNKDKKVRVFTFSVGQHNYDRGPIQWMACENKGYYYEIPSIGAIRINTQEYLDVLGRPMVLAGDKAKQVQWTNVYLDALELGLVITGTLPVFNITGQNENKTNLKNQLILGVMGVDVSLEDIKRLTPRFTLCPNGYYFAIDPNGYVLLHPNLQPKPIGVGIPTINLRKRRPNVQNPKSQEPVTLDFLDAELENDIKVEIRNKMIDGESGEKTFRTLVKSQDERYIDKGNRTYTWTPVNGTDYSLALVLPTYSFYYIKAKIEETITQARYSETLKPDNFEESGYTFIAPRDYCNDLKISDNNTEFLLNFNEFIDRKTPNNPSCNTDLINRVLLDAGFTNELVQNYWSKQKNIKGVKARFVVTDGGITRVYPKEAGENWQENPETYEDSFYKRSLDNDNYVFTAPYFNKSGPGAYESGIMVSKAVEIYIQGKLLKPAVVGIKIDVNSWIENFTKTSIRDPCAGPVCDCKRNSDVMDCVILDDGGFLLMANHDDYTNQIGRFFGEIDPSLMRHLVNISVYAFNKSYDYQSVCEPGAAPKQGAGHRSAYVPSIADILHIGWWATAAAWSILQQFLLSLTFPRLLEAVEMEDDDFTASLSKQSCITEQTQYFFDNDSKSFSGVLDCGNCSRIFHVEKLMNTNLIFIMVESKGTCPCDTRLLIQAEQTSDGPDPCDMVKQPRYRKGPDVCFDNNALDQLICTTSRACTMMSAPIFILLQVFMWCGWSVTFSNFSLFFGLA
T1 sequence (Q9NY47 19-1150): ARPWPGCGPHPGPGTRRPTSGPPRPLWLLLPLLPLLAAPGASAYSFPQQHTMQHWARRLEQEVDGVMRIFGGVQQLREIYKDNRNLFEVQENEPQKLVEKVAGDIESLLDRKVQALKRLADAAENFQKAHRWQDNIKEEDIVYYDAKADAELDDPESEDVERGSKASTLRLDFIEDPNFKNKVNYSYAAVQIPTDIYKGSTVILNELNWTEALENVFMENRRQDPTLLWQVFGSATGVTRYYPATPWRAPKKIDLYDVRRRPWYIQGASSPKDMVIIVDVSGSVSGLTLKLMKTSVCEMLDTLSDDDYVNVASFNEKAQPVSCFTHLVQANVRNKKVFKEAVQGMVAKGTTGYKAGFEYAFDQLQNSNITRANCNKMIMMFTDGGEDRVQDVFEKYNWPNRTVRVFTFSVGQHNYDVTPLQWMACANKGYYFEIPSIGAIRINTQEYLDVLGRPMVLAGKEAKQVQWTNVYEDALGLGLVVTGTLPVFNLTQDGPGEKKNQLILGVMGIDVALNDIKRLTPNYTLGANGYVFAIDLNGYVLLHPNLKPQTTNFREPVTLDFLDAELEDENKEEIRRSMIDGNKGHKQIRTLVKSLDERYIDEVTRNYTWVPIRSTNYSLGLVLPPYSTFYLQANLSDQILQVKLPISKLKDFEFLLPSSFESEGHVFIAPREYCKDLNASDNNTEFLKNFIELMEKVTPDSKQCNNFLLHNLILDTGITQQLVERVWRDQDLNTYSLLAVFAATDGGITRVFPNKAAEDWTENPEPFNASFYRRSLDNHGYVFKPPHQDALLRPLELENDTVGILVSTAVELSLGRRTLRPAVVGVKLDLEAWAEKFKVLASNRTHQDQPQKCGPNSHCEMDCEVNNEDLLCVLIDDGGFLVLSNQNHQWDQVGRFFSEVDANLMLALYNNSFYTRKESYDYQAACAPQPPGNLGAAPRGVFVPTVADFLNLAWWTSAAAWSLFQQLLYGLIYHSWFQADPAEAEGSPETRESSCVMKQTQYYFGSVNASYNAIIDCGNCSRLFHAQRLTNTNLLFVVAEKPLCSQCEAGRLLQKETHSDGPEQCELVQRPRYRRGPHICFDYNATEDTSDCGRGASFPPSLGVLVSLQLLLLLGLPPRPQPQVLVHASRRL
Chain of alpha-2-delta receptor 1 (A2DR1) (P54289 25-1103): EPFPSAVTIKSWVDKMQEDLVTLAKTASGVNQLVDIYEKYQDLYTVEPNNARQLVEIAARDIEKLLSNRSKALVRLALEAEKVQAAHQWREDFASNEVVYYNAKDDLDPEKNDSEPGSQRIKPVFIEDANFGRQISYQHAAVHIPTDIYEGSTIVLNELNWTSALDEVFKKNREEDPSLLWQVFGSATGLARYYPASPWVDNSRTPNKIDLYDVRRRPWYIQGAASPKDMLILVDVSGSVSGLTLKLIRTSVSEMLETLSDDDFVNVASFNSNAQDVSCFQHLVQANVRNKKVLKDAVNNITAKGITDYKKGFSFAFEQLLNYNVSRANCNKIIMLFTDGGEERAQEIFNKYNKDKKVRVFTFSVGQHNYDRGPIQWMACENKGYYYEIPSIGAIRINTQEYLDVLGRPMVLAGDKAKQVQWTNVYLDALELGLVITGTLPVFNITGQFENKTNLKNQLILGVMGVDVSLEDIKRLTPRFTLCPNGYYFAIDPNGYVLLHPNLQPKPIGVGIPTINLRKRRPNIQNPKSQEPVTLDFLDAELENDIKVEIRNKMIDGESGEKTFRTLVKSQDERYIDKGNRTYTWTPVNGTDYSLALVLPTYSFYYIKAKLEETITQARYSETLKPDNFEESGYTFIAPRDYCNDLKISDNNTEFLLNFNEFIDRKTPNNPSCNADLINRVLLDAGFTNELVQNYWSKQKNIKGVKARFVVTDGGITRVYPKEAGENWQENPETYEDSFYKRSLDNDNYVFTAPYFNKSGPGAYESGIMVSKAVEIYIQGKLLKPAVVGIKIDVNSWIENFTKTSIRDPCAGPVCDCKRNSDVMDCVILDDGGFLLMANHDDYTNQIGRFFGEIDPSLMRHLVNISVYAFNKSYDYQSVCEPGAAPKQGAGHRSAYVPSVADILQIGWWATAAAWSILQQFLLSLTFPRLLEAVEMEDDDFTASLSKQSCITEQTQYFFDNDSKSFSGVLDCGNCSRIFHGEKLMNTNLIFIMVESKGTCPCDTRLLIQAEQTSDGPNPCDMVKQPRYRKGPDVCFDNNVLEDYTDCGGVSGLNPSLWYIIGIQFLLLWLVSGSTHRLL

The term IC50 denotes the concentration that inhibits the measured activity by half. A high value points to lower potency. As to `COC1CCC2CC(C(=O)O)NC2C1` (stereo not drawn) [Example O3], the IC50 in data set [1] stood at 2.23 µM. This counts as single-digit micromolar.
Regarding `CC1(C(=O)O)C[C@@H]2CCCC[C@@H]2N1` (mixture of isomers) [Example B2], the “% I @ 10 mg/kg/day (%) (± SEM): inhibition of loss of hind limb joint function in MIA at Day 14” value in data set [2] turned out to be 58 ± 12%. Further, the IC50 in data set [3] is ≥ 10 µM; in data set [1], ≥ 10 µM; in data set [4] it was 2.83 µM; in data set [5], ≥ 10 µM.
Regarding `O=C(NC1CCC2NC(C(=O)O)CC2C1)C1CCCCC1` (stereo not drawn) [Example O6], the “% I @ 10 mg/kg/day (%) (± SEM): inhibition of loss of hind limb joint function in MIA at Day 14” value in data set [2] was −48 ± 10%. Also, the IC50 in data set [1] and in data set [4] was ≥ 10 µM each time.
With `NC1CCC2NC(C(=O)O)CC2C1` (stereo not drawn) [Example O7], the “% I @ 10 mg/kg/day (%) (± SEM): inhibition of loss of hind limb joint function in MIA at Day 14” value in data set [2] is on record as −63 ± 14%. Further, the IC50 in data set [1] and in data set [4] was ≥ 10 µM each time.
One may read the melting point as the temperature of the solid-liquid transition. `CCC1CC[C@@H]2C[C@@H](C(=O)O)N[C@@H]2C1.Cl` (stereo partly drawn) came in with a melting point of 188 to 190 °C.
In the case of `O=c1[nH]c([C@@H]2C[C@@H]3CCCC[C@@H]3N2)no1` [Example F1], the “% I @ 30 mg/kg BID (%) (± SEM): inhibition of loss of hind limb joint function in MIA at Day 14” value in data set [2] (30 mg/kg BID oral) is on record as “(i) 82^2; %”. The 50% inhibitory concentration (IC50) in data set [1] is ≥ 10 µM.
As to `C1CC[C@@H]2N[C@H](c3nnn[nH]3)C[C@@H]2C1`, the melting point is 240 °C (dec.).
Regarding `O=C(O)[C@@H]1C[C@H]2CCC(c3ccccc3)C[C@H]2N1` (stereo partly drawn), the melting point lay within 200 to 205 °C.
As for `CC1CCC2NC(C(=O)O)CC2C1` (stereo not drawn) [Example O5], the “% I @ 10 mg/kg/day (%) (± SEM): inhibition of loss of hind limb joint function in MIA at Day 14” value in data set [2] is −32 ± 20%. Also, the IC50 in data set [3] is 2.8 µM; in data set [1], 0.29 µM; in data set [4], 0.11 µM; in data set [5], ≥ 10 µM.
For `CN1C(C(=O)O)C[C@@H]2CCCC[C@@H]21` (mixture of isomers) [Example A4], in data set [2], the “% I @ 10 mg/kg/day (%) (± SEM): inhibition of loss of hind limb joint function in MIA at Day 14” value came out at 67 ± 8%. In addition, the IC50 in data set [3], in data set [1] and in data set [5] was ≥ 10 µM in each case.
`O=C(NS(=O)(=O)C(F)(F)F)[C@@H]1C[C@@H]2CCCC[C@@H]2N1` [Example E3] registered a melting point of 247 to 249 °C. Further, the IC50 in data set [1] was ≥ 10 µM. Also, in data set [4], the IC50 is ≥ 10 µM.
The molecule `CN(C)CCOC(=O)[C@@H]1C[C@@H]2CCCC[C@@H]2N1.Cl` had a melting point of 189 to 195 °C.
On to `CN1[C@H](C(=O)NS(=O)(=O)C(F)(F)F)C[C@@H]2CCCC[C@@H]21` [Example E4], for which the melting point lay within 189 to 192 °C. The IC50 in data set [1] is ≥ 10 µM. In data set [4], the IC50 was ≥ 10 µM.

Values taken from patent US20050143427A1, “[B]-fused bicyclic proline derivatives and their use for treating arthritic conditions” (priority 2003, published 2005).
